Laboratory results as given in patent US7381707B2, “Treatment of dry eye” (Johnson & Johnson Consumer Companies, Inc., priority 2005, dated 2008).
“Also recorded” adds a separate entry of the source. No end group written: not given here.

Legend:
[1] = tested on: Human primary neonatal keratinocytes; assay: Secretion of inflammatory mediators by primary keratinocytes (ELISA / Beadlyte); type: cell-based; settings: 50 μM, 24 hours; for Fold change in the secretion of inflammatory mediators: IL-6 / Fold change in the secretion of inflammatory mediators: IL-8 / Fold change in the secretion of inflammatory mediators: PGE2 / Fold change in the secretion of inflammatory mediators: PGF2α: cell media; for Fold change in the secretion of inflammatory mediators: IL-6 / Fold change in the secretion of inflammatory mediators: IL-8: Beadlyte; for Fold change in the secretion of inflammatory mediators: PGE2 / Fold change in the secretion of inflammatory mediators: PGF2α: ELISA
Procedure: Human primary neonatal keratinocytes were purchased from Cascade Biologics (Portland, Oreg.). Cells were cultured in Media 154 supplemented with human keratinocytes growth supplement (Cascade Biologics) and were maintained at <80% confluency. Cells were plated at 6×10^4 per well in 24 well plate and allowed to attach to the well overnight with 5% CO2. Cells were then treated with LIGR (50 μM), SLIGRL (50 μM), the control, scrambled peptide ISLLRG (SEQ.ID.NO.18) (50 μM) or left untreated. Each treatment was done in triplicates. 24 hours later, cell media were collected and examined for the expression and secretion of the inflammatory mediators PGE2, PGF2α, IL-8 and IL-6. PGE2 and PGF2α, using ELISA kits (Cayman Chemicals, Ann Arbor, Mich.) according to manufacturer's instructions. IL-8 and IL-6 levels were detected using Beadlyte Human Multi-cytokine Detection System (Upstate Cell Signaling Solutions, Lake Placid, N.Y.) according to manufacturer's instructions. The experiment was repeated 4 times with different lots of primary keratinocytes.

HaCaT cells = assay: Intracellular Ca2+ mobilization (FLIPR) in HaCaT cells; type: cell-based; settings: for Intracellular calcium mobilization (in words): SLIGRL 4-40 μM, LIGR and scrambled peptide at concentrations as high as 800 μM
Procedure: HaCaT cells were seeded in a black-wall 96-well plate at about 20,000 cells/100 μl/well and grown overnight in culture medium prior to the experiment. On the day of the experiment, cells were loaded with 100 μl of Calcium Plus assay reagent component A (FLEXstation calcium Plus Assay Kit, Molecular Devices, Sunnyvale, Calif.) prepared in Hanks' Balanced Salt Solution (HBSS, Mediatech, Inc., Herndon, Va.) for 30 minutes according to the manufacturer's protocol. After loading the cells, SLIGRL, LIGR and ISSLRG (at 5× concentration in 50 μl) were added to all wells (final volume 250 μl/well), and intracellular Ca^2+ levels were subsequently assayed using the FLIPR system (Molecular Devices, Sunnyvale, Calif.) to simultaneously monitor fluorescence in all wells (Wavelength−excitation=488 nm, Wavelength−emission=510 nm) according to the manufacture's protocol. The fluorescence intensity was captured every 3 seconds for the first 3 minutes after the addition of the peptides. The results of this study are shown in Table 6, in fluorescence units.

Cyclooxygenase-2 (COX-2) = assay: COX-2 expression (RT-PCR) in skin of topically treated mice; type: in vivo, SKH1 hairless mice; settings: for COX-2:GAPDH: 100 μM in 70:30 ethanol:propylene glycol, once daily for 2 weeks (M-F), skin RT-PCR
Procedure: SKH1 hairless mice, were purchased from Charles River (Kingston, N.Y.), and were housed in appropriately sized cages in an environmentally controlled room with a 12-hour light—12-hour dark photoperiod and supplied with food and water ad libitum. Mice were either untreated, or treated with LIGR or SLIGRL (From California Research Peptide Research Inc. Napa, Calif.), at 100 μM, in 70:30 ethanol: propylene glycol vehicle, once daily for 2 weeks (M-F, no treatment on weekends). Following ten days of treatment, mice were sacrificed and skin samples were processed for RNA extraction and RT-PCR. The treated skins were analyzed for the expression of Cyclooxygenase-2 (COX-2), a known inflammatory mediator. Total RNA (25 ng) from each sample was subjected to one step RT-PCR reaction using OneStep RT-PCR Kit (QIAGEN®, Valencia, Calif.) according to manufacturer's instructions. The reverse transcription was carried out for 30 minutes at 50° C. and a hot start of 15 minutes at 95° C. was then included to activate HotStarTaq™ DNA polymerase in the reaction mix. PCR Primers were synthesized by Integrated DNA Technologies (Coralville, Iowa). Each RT-PCR reaction contained 30 pmol of each primer of COX-2 or 10 pmol of each primer of GAPDH. Each PCR cycle consisted of denaturing for 50 seconds at 94° C., annealing for 1 minute at 58° C., elongation for 1 minute at 72° C. The PCR products were resolved by electrophoresis in 1% agarose gel and stained with ethidium bromide. Kodak Gel logic 100 imaging system was used to take gel pictures and analyze product band density.
The results of this study are shown in Table 5, as expressed in the ratio of COX-2 expression to the expression of the housekeeping gene GAPDH. […] This in vivo study further supports that LIGR is not a classic PAR-2 activator, and is not inducing pro-inflammatory mediators under physiological conditions.

Mucin 1 (MUC1) = assay: MUC1 gene expression (RT-PCR) in human corneal epithelial equivalents; type: cell-based; settings: 200 μM; for Fold Change (MUC1:GAPDH): treatment refreshed every day, harvested end of 6th day, band density normalized against GAPDH
Procedure: Human corneal equivalents were purchased from SkinEthic Laboratories (Nice, France). Equivalents were allowed to equilibrate in SkinEthic growth medium overnight at 5% CO2, and were then treated with SLIGRL (SEQ.ID.NO.17) (200 μM), LIGR (SEQ.ID.NO.1) (200 μM) or Phosphate buffered saline (PBS) as a control. Treatment was refreshed everyday. At the end of the 6th day, equivalent samples were harvested. Total RNA was extracted from the equivalents using RNAqueous™ kit (Ambion, Austin, Tex.) according to manufacture's instructions. RNA samples were then treated with DNA-free kit (Ambion, Austin Tex.). 25 nanograms of total RNA from each sample were amplified using OneStep RT-PCR kit (Qiagen, Valencia, Calif.) according to the manufacture's instructions. PCR Primers were synthesized by Integrated DNA Technologies (Coralville, Iowa). Each RT-PCR reaction contained 30 pmol of each primer of MUC1 or 10 pmol of each primer of glyceraldehyde-3-phosphate dehydrogenase (GAPDH). Each PCR cycle consisted of denaturing for 50 seconds at 94° C., annealing for 1 minutes at 58° C., elongation for 1 minute at 72° C. The PCR products were resolved by electrophoresis in 1% agarose gel and stained with ethidium bromide. Kodak Gel logic 100 imaging system was used to take gel pictures and analyze product band density.
All sample densities were normalized against GAPDH.

PAR-2 = biological target: T1, PAR-2 (Rattus norvegicus, UniProt Q63645); settings: rats; Nishikawa H et al, J Pharmacol Exp Ther. 2005; cited from earlier work
T1 construct: host or cells: rats in vivo (endogenous receptor)
T1 sequence (Q63645 26-397): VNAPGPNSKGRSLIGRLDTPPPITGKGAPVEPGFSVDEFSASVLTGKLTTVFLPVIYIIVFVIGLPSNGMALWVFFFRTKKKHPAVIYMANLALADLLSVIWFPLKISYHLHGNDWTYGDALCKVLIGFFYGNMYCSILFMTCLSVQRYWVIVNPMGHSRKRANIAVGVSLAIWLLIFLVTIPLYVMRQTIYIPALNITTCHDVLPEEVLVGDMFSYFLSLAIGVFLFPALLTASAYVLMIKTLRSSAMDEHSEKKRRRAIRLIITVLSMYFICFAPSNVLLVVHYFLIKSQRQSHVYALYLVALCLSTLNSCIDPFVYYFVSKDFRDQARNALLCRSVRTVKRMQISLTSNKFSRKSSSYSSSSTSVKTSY

Row | Substance | Induction of inflammatory mediators (in words) [1] | Fold change in the secretion of inflammatory mediators: IL-6 [1] | Fold change in the secretion of inflammatory mediators: IL-8 [1] | Fold change in the secretion of inflammatory mediators: PGE2 [1] | Fold change in the secretion of inflammatory mediators: PGF2α [1] | Fluorescence intensity (HaCaT cells; 40 μM peptide) [fluorescence units] | Fluorescence intensity (HaCaT cells; 400 μM peptide) [fluorescence units] | Intracellular calcium mobilization (in words) (HaCaT cells) | COX-2:GAPDH (Cyclooxygenase-2 (COX-2)) | Fluorescence intensity (HaCaT cells; 200 μM peptide) [fluorescence units] | Fluorescence intensity (HaCaT cells; 800 μM peptide) [fluorescence units] | Fold Change (MUC1:GAPDH) (Mucin 1 (MUC1)) | Induction of expression of the MUC1 gene (in words) (Mucin 1 (MUC1); corneal epithelial equivalents) | COX-2 expression in vivo (in words) (Cyclooxygenase-2 (COX-2); 100 μM topical, mouse skin) | Increase in the expression and secretion of several inflammatory mediators [1] | Fluorescence intensity (HaCaT cells; 4 μM peptide) [fluorescence units] | Fluorescence intensity (HaCaT cells; 8 μM peptide) [fluorescence units] | Fluorescence intensity (HaCaT cells; 20 μM peptide) [fluorescence units] | Tear secretion (in words) (PAR-2)
1 | ISLLRG (ISSLRG; SYTHETIC PEPTIDE) [the control, scrambled peptide] | did not induce these inflammatory mediators | 1.1 | 1.0 | 0.8 | 1.0 | 535.54 | 744.95 | do not induce intracellular calcium mobilization | – | – | – | – | – | – | – | – | – | – | –
2 | H2-Leu-Ile-Gly-Arg-NH2 (H-LIGR-NH2) | does not induce the secretion of inflammatory mediators; also recorded: did not induce these inflammatory mediators | 1.2 | 1.0 | 0.8 | 0.9 | 628.27 | – | does not induce calcium mobilization; also recorded: do not induce intracellular calcium mobilization | 0.275 | 424.315 | 556.105 | 2.1 | induces the expression of the mucin1 gene; also recorded: induced the expression of the MUC1 gene | – | – | – | – | – | –
3 | SLIGRL-NH2 | – | 2.7 | 3.0 | 2.3 | 1.5 | 2842.92 | – | dose dependent increase | 1.168 | – | – | 0.7 | – | increased | 1.5-3 times | 1386.9 | 1904.015 | 2003.095 | induce Tear Secretion
